In patent publication US12630512B2, “Agents for differentiating stem cells and treating cancer” (Minerva Biotechnologies Corporation, priority 2017, dated 2026):

Legend:
[1] = tested on: cancer cells; assay: Cancer cell proliferation assay; assay type: cell-based
Experimental: Percent inhibition of cancer cell migration was performed in a wound healing assay. The percent area that the invading cancer cells occupied, in the presence of a drug candidate compared to the controls, was quantified by Image J cell software which enables cell counting from photographs. IC50's were calculated by performing migration experiments at several compound concentrations and then applying Hill's equation. Inhibition of cancer cell proliferation was quantified by automated cell counting in the presence or absence of a drug candidate. […] The effect of the drug candidates on stem cell pluripotency or proliferation was scored by eye, based on cell morphology and cell density, with 0 being no change in morphology or cell number and 4 being the most profound effect, with the stem cells taking on the morphology of a differentiating cell, along with much fewer cells indicative of inhibition of proliferation. […]
For the cancer cell proliferation experiment cancer cells were plated at constant densities (6000 cells/well) into a 96-well White-walled/Clear-bottom Tissue Culture Treated plate (Corning Incorporated, Big Flats, NY). […] At the 120 hour mark a calcein fluorescence assay (Thermo Fisher Scientific, Waltham, MA) is performed on the plate. Calcein fluorescence (final concentration 0.5 uM) is used to assess cell viability. […]

[2] = tested on: human naïve state stem cells; assay: Stem cell drug screen on naïve state stem cells (pluripotency, proliferation, differentiation); assay type: cell-based; set-up: key to score for inhibition of naïve stem cell pluripotency and proliferation: 0 being no change in morphology or cell number; 4 being the most profound effect; settings: naïve state stem cells; for inhibition at 6 µM: Homo sapiens, 6 uM final concentration per FIGS. 46-64, read-out: inhibited naïve stem cell pluripotency and proliferation; for score for inhibition of naïve stem cell pluripotency and proliferation: scored by eye 0-4, 6 uM per FIGS. 46-64
Experimental: The stem cell screening assay, was performed in both the presence and absence of the stem cell growth factors: NME7AB for growing naïve stem cells or FGF for growing primed stem cells. If the cognate growth factor was present, then the biological or small molecule would have to compete away the growth factor to get an effect. Therefore, we expected to see more of an effect when the growth factor, FGF for primed stem cells or NME7AB or NME1 dimers for naïve stem cells, was absent. The effect of the compounds on stem cells was visually determined and compounds were ranked 0-4, with 4 being the greatest effect and 0 being no observable effect. The major effect that was observed was a change from pluripotent stem cell morphology, which is a cobblestone pattern of small round cells with a large nucleus to cytoplasm ratio, to that of differentiating stem cells, which are elongated, large and flattened cells with a smaller nucleus to cytoplasm ratio. […] The compounds were added to a final concentration of 6 uM to either naïve state stem cells or primed state stem cells. In this particular case, the naïve state stem cells were maintained in a naïve state by culturing in a media containing NME7AB or NME1 dimers. However, other methods such as 2i and 5i (Silva et al., 2008, Nichols and Smith, 2009, Theunissen et al., 2014)] can be used to maintain stem cells in a more naïve state. In this case primed state stem cells were cultured in bFGF over a layer of MEFs, although it is known that any bFGF containing media will maintain stem cells in the primed state.
(§1) Percent inhibition of cancer cell migration was performed in a wound healing assay. The percent area that the invading cancer cells occupied, in the presence of a drug candidate compared to the controls, was quantified by Image J cell software which enables cell counting from photographs. IC50's were calculated by performing migration experiments at several compound concentrations and then applying Hill's equation. Inhibition of cancer cell proliferation was quantified by automated cell counting in the presence or absence of a drug candidate. Here, the inhibition of cancer cell proliferation was scored 1 if proliferation was inhibited by 25%, 2 if inhibited by […] and 4 for the highest degree of inhibition of proliferation, and 0 for the lowest. The effect of the drug candidates on stem cell pluripotency or proliferation was scored by eye, based on cell morphology and cell density, with 0 being no change in morphology or cell number and 4 being the most profound effect, with the stem cells taking on the morphology of a differentiating cell, along with much fewer cells indicative of inhibition of proliferation. As an example, FIGS. 30A-30F show photographs of naïve stem cell, primed stem cell and fibroblast controls. FIGS. 31A-31F show the effect of compounds of the invention on naïve state stem cells, where the number of ‘+’ signs indicates the score from 0-4 of ability of compound to inhibit pluripotency, proliferation of naïve stem cells or ability to induce their differentiation. […] FIGS. 36-44 and 65-87 show photographs and IC50 graphs of the compounds of the invention, inhibiting cancer cell migration and invasion. Cancer cell migration is a hallmark of metastatic cancer.
Stem cells whether embryonic or induced pluripotent stem (iPS) cells were cultured in a minimal, serum-free media that contained human recombinant NME7AB at a concentration of 2-32 nM wherein 4-8 nM is preferred and 4 nM is more preferred. To facilitate surface attachment, cell culture plates were coated with an anti-MUC1* monoclonal antibody called MN-C3 or C3 or MN-C8 at a concentration of 2-100 μg/mL coating solution, wherein 3-50 ug/mL is preferred and 6-12.5 ug/mL is more preferred. In these experiments, 12.5 ug/mL of MN-C3 was used. Antibody coated plates were incubated at 4 degrees C. overnight prior to plating stem cells. A Rho kinase I inhibitor was added to enhance surface attachment. […]

[3] = tested on: T47D breast cancer cells; assay: Cancer cell migration assay (wound healing / Platypus); assay type: cell-based, human; settings: cell line not given, FIGS. 65-80 use T47D, 120 hours; for IC50: Homo sapiens, read-out: IC50 of inhibition of cancer cell migration
Text: Potent cancer cell migration is characteristic of cancer cell invasion of other tissues and of metastasis. Typical migration assays involve coating a cell culture plate with fibronectin, collagen or the like, plating cancer cells and making a scar across through the cells and measuring the time it takes for the cancer cells to invade the void space. An alternative approach that gives more reliable data is the Platypus System which is a special multi-well cell culture plate with a juxtaposed set of plugs that block off a circle in the center of each well. Cancer cells are plated while the plugs are in place, then they are removed after the cells attach to the plate surface. […] In our cancer cell migration assays, the number of cells that have migrated into the empty space is quantified using Image J software. The effects of known anti-migration compounds are compared to the anti-MUC1* Fab E6 and the first few small molecule leads. The effect of two novel small molecules MN1186 and MN1194, compared to the known anti-migration molecule SU11274, is shown in FIG. 22A-22U. FIG. 22V is a graph showing the measured inhibition of cancer cell migration at time 0, 24 hours or 48 hours for a number of compounds. […] FIG. 22X is a graph showing how IC50's of the small molecules of the invention were measured and calculated.
as §1
For the cancer cell migration experiment cancer cells were plated at varying densities into an Oris Cell Migration Assay Collagen-1 coated 96-well plate (Platypus Technologies LLC, Madison, WI). The Collagen-1 coated 96-well plate incorporates a specific vacuum plug which attaches to the bottom of each well, creating an area in which the cells cannot grow into. Once the cells have been plated at high densities into each well, they are allotted an 18-24 hour time period to attach to the bottom of the wells. Post-24 hour plugs are removed from the plate and then small molecule analogs are added to the wells. Images are taken of each well and represent time 0 (T=0) for each well. Images are taken of the wells at the 24, 48, 72, 96 and 120 hour time points. Data analysis is conducted using the images taken at these specific time point. […]

| Compound | inhibited cancer cell proliferation [1] | inhibition at 6 µM [2] [%] | score for inhibition of naïve stem cell pluripotency and proliferation [2] | IC50 [3] [nM] | inhibited cancer cell migration [3] [%] |
| --- | --- | --- | --- | --- | --- |
| C[C@@H]1Cc2c([nH]c3ccccc23)CN1C(=O)C1CCC(CN(C)C(=O)NC(C)(C)C)CC1 (some centres unmarked) [MN1423] | 50% | 100 | 4 | 12 | 84 |
| CN(C[C@H]1CC[C@H](C(=O)N2CCc3c([nH]c4ccccc34)C2C2CC2)CC1)C(=O)NC(C)(C)C (some centres unmarked) [MN1413] | about 50% | 100 | 4 | 10 | 83 |
| CN(CC1CCC(C(=O)N2CCC(c3ccncc3)CC2)CC1)C(=O)OC(C)(C)C (centres unmarked) [MN1428, Tert-butyl methyl((4-(4-(pyridin-4-yl)piperidine-1-carbonyl)cyclohexyl)methyl)carbamate] |  | 100 | 4 | 7 | 79 |
